In patent publication US11731969B2, “Crystal polymorph of 8-bromo-2-(1-methylpiperidin-4-ylamino)-4-(4-phenoxyphenylamino)pyrido[4,3-d]pyrimidin-5(6H)-one hydrochloride and method for preparing same” (OSCOTEC INC., priority 2018, dated 2023):
Where a name gives a salt, the structure may show the parent alone.

Key:
[1] = Evaluation of solubility in distilled water (HPLC); format: physicochemical; details: for Solubility: distilled water, 20 mg/ml added, stirred 2 hours at room temperature (25° C.), filtered, HPLC, hydrochloride; for Solubility as compared with Compound 1 (in words): summary of Table 1
Description: Distilled water was added to 8-bromo-2-(1-methylpiperidin-4-ylamino)-4-(4-phenoxyphenylamino)pyrido[4,3-d]pyrimidin-5(6H)-one hydrochloride (Compound 1) represented by the above Formula 1 and the crystalline form (VI) and the crystalline form (X) obtained in the Examples such that the concentration was 20 mg/ml, which was stirred for 2 hours at room temperature (25° C.) and then filtered. Thereafter, it was diluted 200 times with acetonitrile of a concentration of 50%.

[2] = Evaluation of hygroscopicity by dynamic moisture adsorption analyzer (DVS); format: physicochemical; details: for Hygroscopicity (%): 25° C., DVS, hydrochloride
Description: 8-bromo-2-(1-methylpiperidin-4-ylamino)-4-(4-phenoxyphenylamino)pyrido[4,3-d]pyrimidin-5(6H)-one hydrochloride (Compound 1) represented by the above Formula 1 and the crystalline form (VI) obtained in the Examples were measured for hygroscopicity in a relative humidity range of 0% to 90% at 25° C. using a dynamic moisture adsorption analyzer (DVS).

protein kinase = details: see Korean Laid-open Patent Publication No. 2014-0144709; cited from earlier work

| Solubility [1] [mg/mL] | Solubility as compared with Compound 1 (in words) [1] | Hygroscopicity (%) ([2]; relative humidity 0.0%) | Hygroscopicity (%) ([2]; relative humidity 10.0%) | Hygroscopicity (%) ([2]; relative humidity 20.0%) | Hygroscopicity (%) ([2]; relative humidity 30.0%) | Hygroscopicity (%) ([2]; relative humidity 40.0%) | Hygroscopicity (%) ([2]; relative humidity 50.0%) | Hygroscopicity (%) ([2]; relative humidity 60.0%) | Hygroscopicity (%) ([2]; relative humidity 70.0%) | Hygroscopicity (%) ([2]; relative humidity 80.0%) | Hygroscopicity (%) ([2]; relative humidity 90.0%) | Hygroscopicity as compared with Compound 1 (in words) ([2]; summary of Table 2) | Compound | Effect on the activity of protein kinase (in words) (protein kinase) |
| --- | --- | --- | --- | --- | --- | --- | --- | --- | --- | --- | --- | --- | --- | --- |
| 19.1 | improved solubility | 0.004 | 0.707 | 0.948 | 1.132 | 1.280 | 1.419 | 1.561 | 1.726 | 1.973 | 2.452 | improved hygroscopicity | CN1CCC(Nc2nc(Nc3ccc(Oc4ccccc4)cc3)c3c(=O)[nH]cc(Br)c3n2)CC1 [Crystalline form (VI), 8-bromo-2-(1-methylpiperidin-4-ylamino)-4-(4-phenoxyphenylamino)pyrido[4,3-d]pyrimidin-5(6H)-one hydrochloride] | – |
| 0.25 | – | 0.001 | 0.655 | 1.202 | 1.695 | 2.081 | 2.457 | 2.823 | 3.215 | 3.696 | 4.584 | – | CN1CCC(Nc2nc(Nc3ccc(Oc4ccccc4)cc3)c3c(=O)[nH]cc(Br)c3n2)CC1 [Compound 1, 8-bromo-2-(1-methylpiperidin-4-ylamino)-4-(4-phenoxyphenylamino)pyrido[4,3-d]pyrimidin-5(6H)-one hydrochloride] | has an effect of inhibiting the activity of protein kinase |
| 17.3 | improved solubility | – | – | – | – | – | – | – | – | – | – | – | CN1CCC(Nc2nc(Nc3ccc(Oc4ccccc4)cc3)c3c(=O)[nH]cc(Br)c3n2)CC1 [Crystalline form (X), 8-bromo-2-(1-methylpiperidin-4-ylamino)-4-(4-phenoxyphenylamino)pyrido[4,3-d]pyrimidin-5(6H)-one hydrochloride] | – |
